Structures can show the parent of a compound that is named as a salt. Where two headings read alike, the source gives them in different places.
Experiments:
[1] = test system: NCI-H292 lung cancer cells; assay: FDA drug screening, complete media vs cholesterol-free media without statin (TABLE 1); type: cell-based, human
[2] = test system: NCI-H292 lung cancer cells; assay: FDA drug screening, complete media vs cholesterol-free media with simvastatin (TABLE 2); type: cell-based, human
[3] = Complete minus Cholesterol-free, greater than 0 enhanced anti-cancer activity, about 0 neutral, below 0 antagonist
[4] = NCI-H292 cells, FDA drug library screen, complete media
[5] = NCI-H292 cells, FDA drug library screen, cholesterol-free media with simvastatin 0.04 μM
[6] = complete media minus cholesterol-free media + simvastatin, >0 enhanced anti-cancer activity, about 0 neutral, <0 antagonist
[7] = NCI-H292 cells, cholesterol-free media without statin
[8] = complete vs cholesterol-free media, greater than 0 enhanced anti-cancer activity, about 0 neutral, below 0 antagonists
[9] = NCI-H292 cells, cholesterol-free media with simvastatin 0.04 μM, FDA drug library screen (TABLE 2)
[10] = NCI-H292 cells, complete media, FDA drug library screen (TABLE 2)
[11] = complete media minus cholesterol-free media + simvastatin (0.04 μM), >0 enhanced anti-cancer activity, about 0 neutral, <0 antagonist
[12] = Complete minus Cholesterol-free, greater than 0 enhanced anti-cancer activity, about 0 neutral, below 0 antagonists
[13] = NCI-H292 cells in cholesterol-free media without statin
[14] = NCI-H292 cells in complete media
[15] = complete media vs cholesterol-free media + simvastatin (0.04 μM), >0 enhanced anti-cancer activity, about 0 neutral, <0 antagonist
[16] = NCI-H292 cells, cholesterol-free media without statin, FDA drug library screen
[17] = NCI-H292 cells, complete media, FDA drug library screen
[18] = complete vs cholesterol-free media, >0 enhanced anti-cancer activity, about 0 neutral, <0 antagonist
[19] = Complete minus Cholesterol-free, >0 enhanced anti-cancer activity, about 0 neutral, <0 antagonist
[20] = NCI-H292 cells, cholesterol-free media with simvastatin 0.04 μM, cell growth value in FDA drug screen
[21] = NCI-H292 cells, complete media, cell growth value in FDA drug screen
[22] = NCI-H292 cells, FDA drug library screen, cholesterol-free media without statin
[23] = NCI-H292 cells, drug in cholesterol-free media with simvastatin 0.04 μM
[24] = NCI-H292 cells, drug in complete media
[25] = NCI-H292 cells, FDA library drug in cholesterol-free media with simvastatin 0.04 μM
[26] = NCI-H292 cells, FDA library drug in complete media

## CN[C@H]1CC[C@@H](c2ccc(Cl)c(Cl)c2)c2ccccc21 [Sertraline (hydrochloride)]
[1]; [3]
  Difference: −0.11
[1]; [4]
  Complete: 0.9984
[2]; [5]
  Cholesterol-free media + simvastatin (0.04 μM): 0.9083
[2]; [4]
  Complete Media: 1.2
[2]; [6]
  Difference: 0.29

## CN(C)[C@@H](CCOc1cccc2ccccc12)c1ccccc1 [Dapoxetine (hydrochloride)]
[1]; [7]
  Cholesterol-free: 1.092
[1]; NCI-H292 cells, complete media
  Complete: 0.7794
[1]; [8]
  Difference: −0.31
[2]; [9]
  Cholesterol-free media + simvastatin (0.04 μM): 1.079
[2]; [10]
  Complete Media: 1.031
[2]; [11]
  Difference: −0.05

## CCOC(=O)[C@@H](N)Cc1ccc(-c2cc(O[C@H](c3ccc(Cl)cc3-n3ccc(C)n3)C(F)(F)F)nc(N)n2)cc1 [Telotristat etiprate]
[1]; [12]
  Difference: −0.51
[1]; [13]
  Cholesterol-free: 1.323
[1]; [14]
  Complete: 0.8145
[2]; [5]
  Cholesterol-free media + simvastatin (0.04 μM): 1.173
[2]; [4]
  Complete Media: 1.074
[2]; [15]
  Difference: −0.10

## CC(C)NNC(=O)c1ccncc1 [Iproniazid]
[1]; [12]
  Difference: −0.56
[1]; [13]
  Cholesterol-free: 1.339
[1]; [14]
  Complete: 0.7813
[2]; [5]
  Cholesterol-free media + simvastatin (0.04 μM): 1.211
[2]; [4]
  Complete Media: 1.75
[2]; [6]
  Difference: 0.54

## N#CC(c1ccc(Cl)cc1)c1c(Cl)cc(-n2ncc(=O)[nH]c2=O)cc1Cl (stereo not drawn) [Diclazuril]
[1]; [16]
  Cholesterol-free: 0.7362
[1]; [17]
  Complete: 1.131
[1]; [18]
  Difference: 0.39
[2]; [5]
  Cholesterol-free media + simvastatin (0.04 μM): 1.052
[2]; [4]
  Complete Media: 0.9766
[2]; [15]
  Difference: −0.08

## Cc1ccsc1C(=CCCN1CCC[C@@H](C(=O)O)C1)c1sccc1C [Tiagabine (hydrochloride)]
[1]; [19]
  Difference: −0.25
[1]; [7]
  Cholesterol-free: 1.406
[1]; NCI-H292 cells, complete media
  Complete: 1.159
[2]; [20]
  Cholesterol-free media + simvastatin (0.04 μM): 0.8465
[2]; [21]
  Complete Media: 0.9752
[2]; [6]
  Difference: 0.13

## CC(C)N(CCC(C(N)=O)(c1ccccc1)c1ccccn1)C(C)C (stereo not drawn) [Disopyramide]
[1]; [3]
  Difference: −0.15
[1]; [22]
  Cholesterol-free: 1.106
[1]; [4]
  Complete: 0.9575
[2]; [9]
  Cholesterol-free media + simvastatin (0.04 μM): 1.301
[2]; [10]
  Complete Media: 1.257
[2]; [11]
  Difference: −0.04

## Atazanavir (sulfate)
[1]; [3]
  Difference: −0.18
[1]; [22]
  Cholesterol-free: 1.207
[1]; [4]
  Complete: 1.022
[2]; [5]
  Cholesterol-free media + simvastatin (0.04 μM): 1.26
[2]; [4]
  Complete Media: 1.128
[2]; [15]
  Difference: −0.13

## COC(=O)C1=C(C)NC(C)=C(C(=O)OC(C)C)C1c1cccc2nonc12 (stereo not drawn) [Isradipine]
[1]; [7]
  Cholesterol-free: 1.16
[1]; NCI-H292 cells, complete media
  Complete: 0.8034
[1]; [8]
  Difference: −0.36
[2]; [5]
  Cholesterol-free media + simvastatin (0.04 μM): 0.7485
[2]; [4]
  Complete Media: 1.061
[2]; [6]
  Difference: 0.31

## CNC(=O)c1cc(Oc2ccc(NC(=O)Nc3ccc(Cl)c(C(F)(F)F)c3)c(F)c2)ccn1 [Regorafenib]
[1]; [3]
  Difference: −0.09
[1]; [22]
  Cholesterol-free: 0.6924
[1]; [4]
  Complete: 0.601
[2]; [23]
  Cholesterol-free media + simvastatin (0.04 μM): 1.071
[2]; [24]
  Complete Media: 0.8585
[2]; [15]
  Difference: −0.21

## CC1(C)S[C@@H]2[C@H](NC(=O)Cc3ccccc3)C(=O)N2[C@H]1C(=O)O.CC1(C)S[C@@H]2[C@H](NC(=O)Cc3ccccc3)C(=O)N2[C@H]1C(=O)O.O.O.O.O.c1ccc(CNCCNCc2ccccc2)cc1 [Penicillin G benzathine (tetrahydrate)]
[1]; [12]
  Difference: −0.54
[1]; [13]
  Cholesterol-free: 1.6
[1]; [14]
  Complete: 1.064
[2]; [23]
  Cholesterol-free media + simvastatin (0.04 μM): 1.321
[2]; [24]
  Complete Media: 1.126
[2]; [15]
  Difference: −0.20

## Miconazole (nitrate)
[1]
  Cholesterol-free: 0.9239
  Complete: 0.8136
  Difference: −0.11
[2]
  Cholesterol-free media + simvastatin (0.04 μM): 0.4137
  Complete Media: 0.8009
  Difference: 0.39

## CCOCCn1c(C2CCN(CCc3ccc(C(C)(C)C(=O)O)cc3)CC2)nc2ccccc21 [Bilastine]
[1]; [19]
  Difference: −0.27
[1]; [7]
  Cholesterol-free: 1.435
[2]; [5]
  Cholesterol-free media + simvastatin (0.04 μM): 1.167
[2]; [4]
  Complete Media: 1.071
[2]; [15]
  Difference: −0.10

## CC(C)Oc1ccc2c(=O)c(-c3ccccc3)coc2c1 [Ipriflavone]
[1]; [16]
  Cholesterol-free: 0.6871
[1]; [17]
  Complete: 1.135
[1]; [18]
  Difference: 0.45
[2]; [9]
  Cholesterol-free media + simvastatin (0.04 μM): 1.029
[2]; [10]
  Complete Media: 1.016
[2]; [11]
  Difference: −0.01

## CCN1CCCC(OC(=O)C(c2ccccc2)c2ccccc2)C1 (stereo not drawn) [Piperidolate]
[1]
  Cholesterol-free: 1.19
  Complete: 0.6819
  Difference: −0.51
[2]
  Cholesterol-free media + simvastatin (0.04 μM): 0.8957
  Complete Media: 1.487
  Difference: 0.59

## Aliskiren (hemifumarate)
[1]; [7]
  Cholesterol-free: 1.354
[1]; NCI-H292 cells, complete media
  Complete: 0.9547
[1]; [8]
  Difference: −0.40
[2]; [20]
  Cholesterol-free media + simvastatin (0.04 μM): 0.7275
[2]; [21]
  Complete Media: 0.8337
[2]; [6]
  Difference: 0.11

## Cc1cccc(Nc2ccncc2S(=O)(=O)NC(=O)NC(C)C)c1 [Torsemide]
[1]; [3]
  Difference: −0.16
[1]; [22]
  Cholesterol-free: 1.07
[1]; [4]
  Complete: 0.914
[2]; [9]
  Cholesterol-free media + simvastatin (0.04 μM): 1.055
[2]; [10]
  Complete Media: 0.9909
[2]; [11]
  Difference: −0.06

## CN1CCN(CC/C=C2/c3ccccc3Sc3ccc(S(=O)(=O)N(C)C)cc32)CC1 [(Z)-Thiothixene]
[1]; [19]
  Difference: −0.29
[1]; [7]
  Cholesterol-free: 1.344
[1]; NCI-H292 cells, complete media
  Complete: 1.05
[2]; [20]
  Cholesterol-free media + simvastatin (0.04 μM): 0.9883
[2]; [21]
  Complete Media: 1.062
[2]; [6]
  Difference: 0.07

## CN(C)CCCC1(c2ccc(F)cc2)OCc2cc(C#N)ccc21 (stereo not drawn) [Citalopram (hydrobromide)]
[1]; [16]
  Cholesterol-free: 0.8091
[1]; [17]
  Complete: 1.106
[1]; [18]
  Difference: 0.30
[2]; [25]
  Cholesterol-free media + simvastatin (0.04 μM): 1.457
[2]; [26]
  Complete Media: 0.8476
[2]; [15]
  Difference: −0.61

## O=C(O)C(c1ccccc1)(c1ccccc1)c1ccccc1.OCc1cc([C@@H](O)CNCCCCCCOCCOCc2c(Cl)cccc2Cl)ccc1O [Vilanterol (trifenatate)]
[1]; [7]
  Cholesterol-free: 1.453
[1]; NCI-H292 cells, complete media
  Complete: 1.047
[1]; [8]
  Difference: −0.41
[2]; [9]
  Cholesterol-free media + simvastatin (0.04 μM): 0.9213
[2]; [10]
  Complete Media: 0.9369
[2]; [11]
  Difference: 0.02

## CN(C)C(=N)N=C(N)N [Metformin]
[1]; [12]
  Difference: −0.64
[1]; [13]
  Cholesterol-free: 1.603
[1]; [14]
  Complete: 0.9656
[2]; [5]
  Cholesterol-free media + simvastatin (0.04 μM): 1.921
[2]; [11]
  Difference: −0.91

## O=c1[nH]c2ccccc2n1CCCN1CCC(n2c(=O)[nH]c3cc(Cl)ccc32)CC1 [Domperidone]
[1]; [3]
  Difference: −0.14
[1]; [22]
  Cholesterol-free: 1.085
[1]; [4]
  Complete: 0.9412
[2]; [20]
  Cholesterol-free media + simvastatin (0.04 μM): 0.9833
[2]; [21]
  Complete Media: 1.061
[2]; [6]
  Difference: 0.08

## Cc1ccc([C@@H]2O[C@H](CO)[C@@H](O)[C@H](O)[C@H]2O)cc1Cc1ccc(-c2ccc(F)cc2)s1.O [Canagliflozin (hemihydrate)]
[1]; Complete minus Cholesterol-free, […]
  Difference: −0.51
[1]; [13]
  Cholesterol-free: 1.347
[1]; [14]
  Complete: 0.8359
[2]; [25]
  Cholesterol-free media + simvastatin (0.04 μM): 1.34
[2]; [26]
  Complete Media: 0.8924
[2]; complete media vs cholesterol-free media + simvastatin (0.04 μM), […]
  Difference: −0.45

— US20250144067A1, “PERSONALIZED STARVATION THERAPY FOR CANCER” (Faeth Therapeutics, Inc., priority 2021, published 2025)
